Patent US20080032897A1, “Methods of screening for inhibitors of autoinhibited proteins” (priority 2004, published 2008)
Entries after “also recorded” stand apart in the source; their conditions may differ.

Experiments:
[1] = biological target: T1, WASP (Homo sapiens, UniProt P42768); conditions: cited from earlier work
T1 sequence (P42768 with tags, fused parts or gaps limits assumed): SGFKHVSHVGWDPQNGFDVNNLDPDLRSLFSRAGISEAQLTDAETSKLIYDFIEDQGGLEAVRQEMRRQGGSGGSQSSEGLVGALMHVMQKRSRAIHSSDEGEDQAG

[2] = tested on: N-WASP; conditions: cited from earlier work
[3] = tested on: Pak; conditions: reported; cited from earlier work
[4] = tested on: mixed-lineage kinases (MLKs); conditions: reported; cited from earlier work
[5] = biological target: T2, full-length Pak1 (Homo sapiens, UniProt Q13153); experiment: luminescence-based (Kinase Glo) kinase assay, Cdc42-activated full-length Pak1; format: biochemical; conditions: 384-well plates, ATP-dependent luminescence, FIG. 9C
T2 construct: made in house; host or cells: Sf9 cells
T2 sequence (Q13153 whole entry): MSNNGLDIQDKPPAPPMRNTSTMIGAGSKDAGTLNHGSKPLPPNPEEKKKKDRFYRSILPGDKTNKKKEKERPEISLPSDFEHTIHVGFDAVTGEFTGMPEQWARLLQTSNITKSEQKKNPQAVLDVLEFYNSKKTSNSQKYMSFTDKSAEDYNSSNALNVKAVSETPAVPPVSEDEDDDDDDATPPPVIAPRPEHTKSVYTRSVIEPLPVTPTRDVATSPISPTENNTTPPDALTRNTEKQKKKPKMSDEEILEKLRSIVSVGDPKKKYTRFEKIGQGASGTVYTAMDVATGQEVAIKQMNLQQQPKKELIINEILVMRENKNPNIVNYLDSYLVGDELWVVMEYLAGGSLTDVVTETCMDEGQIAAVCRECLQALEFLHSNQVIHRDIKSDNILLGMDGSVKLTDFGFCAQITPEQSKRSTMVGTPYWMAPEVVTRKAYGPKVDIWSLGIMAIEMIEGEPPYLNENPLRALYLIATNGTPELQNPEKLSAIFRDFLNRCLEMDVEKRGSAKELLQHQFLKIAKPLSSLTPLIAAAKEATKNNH
Protocol: In some embodiments, the kinase activity of these two proteins (wild-type full length kinase, and isolated kinase domain) is measured in parallel using a validated luminescence-based assay. In this assay, kinase activity is based on a measurement of the residual ATP in the reaction following kinase-mediated ATP hydrolysis (Kinase Glo®; Promega®). This is an endpoint assay in which kinase reactions are allowed to proceed until a predetermined timepoint at which point the addition of the Kinase Glo® detection mix containing luciferase and luciferin stops the kinase reaction and utilizes the residual ATP to convert luciferin to oxyluciferin with the accompanying emission of a photon of light. Intensity of the emitted light is linearly correlated with ATP concentration. […]
The isolated kinase domain or full-length Pak1 in assay buffer is aliquotted into individual wells of a 384-well plate using a Bio-Tek MicroFill®. […] The reaction is stopped by the addition of Kinase Glo® reagent (15 μl/well), and is incubated at room temperature for 10-30 minutes to allow development of luminescence. Luminescence is read in a Cary Eclipse (Varian®) fluorometer/luminometer outfitted for reading 384-well plates.
A luminescence-based assay for kinase activity is used based on measurement of residual ATP in the reaction following kinase-mediated ATP hydrolysis. […]

Q: What does the source list for `CN(C)C[C@H](O)Cn1c2ccc(Br)cc2c2cc(Br)ccc21` (racemic) [wiskostatin]?
A: binding site on WASP ([1]; NMR structure): bound exclusively to the PBD in its autoinhibited conformation; effect on autoinhibited fold of the PBD ([1]; biophysical experiments): stabilizes the autoinhibited fold of the PBD; inhibition of N-WASP [2]: chemical inhibitors of N-WASP

Q: Which “concentration at which Pak is inhibited” value [3] does the source give for `CCSCc1ccc2c(c1)c1c3c(c4c5cc(CSCC)ccc5n5c4c1n2[C@H]1C[C@](O)(C(=O)OC)[C@]5(C)O1)CNC3=O` [CEP-1347] here?
A: Its value is “low micromolar”.

Q: And the “potency against MLKs relative to Pak” value [4]?
A: Its value is “at least an order of magnitude more potent”.

Q: Which “inhibition of Pak1 kinase activity” value [5] does the source give for `CN[C@@H]1C[C@H]2O[C@@](C)([C@@H]1OC)n1c3ccccc3c3c4c(c5c6ccccc6n2c5c31)C(=O)NC4` [staurosporine] here?
A: The value was “successfully detects inhibition of Pak; also recorded: readily detected”.
